In paper PMC11983176 (ACS Omega, 2025):
Where two headings read alike, the source gives them in different places.

Key:
[1] = tested on: MCF-7; experiment: MTT cytotoxicity assay, MCF-7; format: cell-based, human; settings: read-out: Cytotoxicity (IC50) MCF-7, 48 h of treatment
[2] = tested on: T47D; experiment: MTT cytotoxicity assay, T47D; format: cell-based, human
[3] = tested on: MCF-7; experiment: Cell viability by cell adhesion assay; format: cell-based, human; settings: MCF-7, 500 to 1.95 μM, 45 min
[4] = Stability in PBS and Tris-HCl buffer by UV-vis spectroscopy; format: physicochemical; settings: PBS (0.1 M, pH 7.4) and Tris-HCl, 10% DMSO, room temperature, 5 min to 72 h

Molecule: 1-Cyclopentyl-2,3-dihydro-1H-benzimidazole [compound 1]
- IC50 [1]: 37 ± 1.93 µM
- IC50 ([2]; read-out: Cytotoxicity (IC50) T47D, MTT assay, 48 h of treatment): 41 ± 2.12 µM

Molecule: CC/C(=C(\c1ccccc1)c1ccc(OCCN(C)C)cc1)c1ccccc1 [Tamoxifen]
- IC50 ([2]; Homo sapiens, T47D, 48 h, read-out: Cytotoxicity (IC50) T47D, MTT assay, 48 h of treatment): 13 ± 0.71 µM
- cell killing in adhesion assay [3]: slightly less initial effects on MCF-7 cells

Molecule: [Cl][Ag] [silver chloride]
- stability in buffer solution [4]: precipitates appeared immediately

Molecule: O=[N+]([O-])[O-].[Ag+] [silver nitrate]
- stability in buffer solution [4]: precipitates appeared immediately
